Experimental data reported in patent publication US20090221599A1, “PHTHALAZINONE PYRAZOLE DERIVATIVES, THEIR MANUFACTURE AND USE AS PHARMACEUTICAL AGENTS” (priority 2006, published 2009).

The molecules below were run against T1, mutant Aurora A kinase (Homo sapiens, UniProt O14965) (assay: IC50 determination for inhibitors of Aurora A (ELISA, GST-Histone H3 substrate)). Details: 30 μM ATP, 40 minutes, read-out: IC50 Aurora A kinase inhibition.
T1 sequence (O14965 1-403): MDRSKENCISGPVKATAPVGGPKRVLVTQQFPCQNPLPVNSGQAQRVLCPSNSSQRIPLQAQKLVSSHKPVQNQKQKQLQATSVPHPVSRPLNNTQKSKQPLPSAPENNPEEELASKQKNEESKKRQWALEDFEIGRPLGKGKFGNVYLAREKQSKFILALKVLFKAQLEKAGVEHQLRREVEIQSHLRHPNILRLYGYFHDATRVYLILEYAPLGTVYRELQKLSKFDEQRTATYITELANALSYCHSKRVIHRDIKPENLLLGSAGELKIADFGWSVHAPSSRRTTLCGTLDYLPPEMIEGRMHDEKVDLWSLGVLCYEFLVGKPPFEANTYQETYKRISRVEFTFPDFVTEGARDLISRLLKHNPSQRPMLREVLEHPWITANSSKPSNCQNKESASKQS
Type: biochemical
Method: Aurora A is a serine threonine kinase involved in spindle assembly and chromosome segregation.
The assay is a typically ELISA-type assay where substrate (GST-Histone H3) is coupled to the assay-plate and is phosphorylated by the kinase. Phosphorylation is detected by a mouse anti-Phosphopeptid mAb and an HRP-labeled anti-mouse pAb. The assay is validated for IC50-determination.
Kinase activities were measured by Enzyme-Linked Immunosorbent Assay (ELISA): Maxisorp 384-well plates (Nunc) were coated with recombinant fusion protein comprising residues 1-15 of Histone H3 fused to the N-terminus of Glutathione-S-Transferase. Plates were then blocked with a solution of 1 mg/mL I-block (Tropix cat# T2015—highly purified form of casein) in phosphate-buffered saline. Kinase reactions were carried out in the wells of the ELISA plate by combining an appropriate amount of mutant Aurora A kinase with test compound and 30 μM ATP. The reaction buffer was 10× Kinase Buffer (Cell Signaling cat #9802) supplemented with 1 μg/mL I-block. Reactions were stopped after 40 minutes by addition of 25 mM EDTA. After washing, substrate phosphorylation was detected by addition of anti-phospho-Histone H3 (Ser 10) 6G3 mAb (Cell Signaling cat #9706) and sheep anti-mouse pAb-HRP (Amersham cat# NA931V), followed by calorimetric development with TMB (3,3′,5,5′-tetramethylbenzidine from Kirkegaard & Perry Laboratories). After readout of the absorbance, IC50 values were calculated using a non-linear curve fit (XLfit software (ID Business Solution Ltd., Guilford, Surrey, UK)).

Row | Structure (SMILES) | IC50
1 | Cc1cc(Nc2nn(C(C)C)c(=O)c3cc(OCCCS(=O)(=O)N4CCOCC4)ccc23)n[nH]1 [Example A-4, 2-Isopropyl-4-(5-methyl-1H-pyrazol-3-ylamino)-7-[3-(morpholine-4-sulfonyl)-propoxy]-2H-phthalazin-1-one] | 10 nM
2 | Cc1cc(Nc2nn(C(C)C)c(=O)c3cc(OCCN(C)C)ccc23)n[nH]1 [Example A-5, 7-(2-Dimethylamino-ethoxy)-2-isopropyl-4-(5-methyl-1H-pyrazol-3-ylamino)-2H-phthalazin-1-one] | 22 nM

Next, values leading:

Row | IC50 | Structure (SMILES)
3 | 10 nM | Cc1cc(Nc2nn(C(C)C)c(=O)c3cc(S(=O)(=O)CCS(C)(=O)=O)ccc23)n[nH]1 [Example C-2, 2-Isopropyl-7-(2-methanesulfonyl-ethanesulfonyl)-4-(5-methyl-1H-pyrazol-3-ylamino)-2H-phthalazin-1-one]
4 | 16 nM | Cc1cc(Nc2nn(C(C)C)c(=O)c3cc(COCCN4CCOCC4)ccc23)[nH]n1 [Example E-3, 2-Isopropyl-4-(5-methyl-2H-pyrazol-3-ylamino)-7-(2-morpholin-4-yl-ethoxymethyl)-2H-phthalazin-1-one]

The molecules below were run on HCT 116 cells (assay: CellTiter-Glo assay in HCT 116 cells). Details: HCT 116 human colon carcinoma cells, 5 days, CellTiter-Glo cell viability.
Type: cell-based
Method: The CellTiter-Glo™ Luminescent Cell Viability Assay (Promega) is a homogeneous method of determining the number of viable cells in culture based on quantitation of the ATP present, which signals the presence of metabolically active cells.
HCT 116 cells (human colon carcinoma, ATCC-No. CC1-247) were cultivated in RPMI 1640 medium with GlutaMAX™ I (Invitrogen, Cat-No. 61870-010), 2.5% Fetal Calf Serum (FCS, Sigma Cat-No. F4135 (FBS)); 100 Units/ml penicillin/100 μg/ml streptomycin (=Pen/Strep from Invitrogen Cat. No. 15140). For the assay the cells were seeded in 384 well plates, 1000 cells per well, in the same medium. The next day the test compounds were added in various concentrations ranging from 30 μM to 0.0015 μM (10 concentrations, 1:3 diluted). After 5 days the CellTiter-Glo™ assay was done according to the instructions of the manufacturer (CellTiter-Glo™ Luminescent Cell Viability Assay, from Promega). In brief: the cell-plate was equilibrated to room temperature for approximately 30 minutes and than the CellTiter-Glo™ reagent was added. The contents were carefully mixed for 15 minutes to induce cell lysis. After 45 minutes the luminescent signal was measured in Victor 2, (scanning multiwell spectrophotometer, Wallac).
1st. day: • Medium: RPMI 1640 with GlutaMAX™ I (Invitrogen, Cat-No. 61870), 5% FCS (Sigma Cat.-No. F4135), Pen/Strep (Invitrogen, Cat No. 15140). • HCT116 (ATCC-No. CC1-247): 1000 cells in 60 μl per well of 384 well plate (Greiner 781098, μClear-plate white) • After seeding incubate plates 24 h at 37° C., 5% CO2 2nd. day: Induction (Treatment with compounds, 10 concentrations):
In order to achieve a final concentration of 30 μM as highest concentration 3.5 μl of 10 mM compound stock solution were added directly to 163 μl media. Then step e) of the dilution procedure described below, was followed.
In order to achieve the second highest to the lowest concentrations, a serial dilution with dilution steps of 1:3 was followed according to the procedure (a-d) as described here below: • a) for the second highest concentration add 10 μl of 10 mM stock solution of compound to 20 μl dimethylsulfoxide (DMSO) • b) dilute 8× 1:3 (always 10 μl to 20 μl DMSO) in this DMSO dilution row (results in 9 wells with concentrations from 3333.3 μM to 0.51 μM) • c) dilute each concentration 1:47.6 (3.5 μl compound dilution to 163 μl media) • d) add 10 μl of every concentration to 60 μl media in the cell plate resulting in final concentration of DMSO: 0.3% in every well and resulting in 10 final concentration of compounds ranging from 30 μM to 0.0015 μM. • Each compound is tested in triplicate. • Incubate 120 h (5 days) at 37° C., 5% CO2
• Add 30 μl CellTiter-Glo™ Reagent (prepared from CellTiter-Glo™ Buffer and CellTiter-Glo™ Substrate (lyophilized) purchased from Promega) per well, • shake 15 minutes at room temperature • incubate further 45 minutes at room temperature without shaking
• Victor 2 scanning multiwell spectrophotometer (Wallac), Luminescence mode (0.5 sec/read, 477 nm) • Determine IC50 using a non-linear curve fit (XLfit software (ID Business Solution Ltd., Guilford, Surrey, UK))

Row | IC50 | Structure (SMILES)
5 | 92 nM | CSCCN(C)c1ccc2c(Nc3cc(C)[nH]n3)nn(C(C)C)c(=O)c2c1 [Example B-1, 2-Isopropyl-7-[methyl-(2-methylsulfanyl-ethyl)-amino]-4-(5-methyl-1H-pyrazol-3-ylamino)-2H-phtalazin-1-one]

Same assay, conditions: Homo sapiens, HCT-116, 120 h, HCT 116 human colon carcinoma cells, 5 days, CellTiter-Glo cell viability

Row | Structure (SMILES) | IC50
6 | Cc1cc(Nc2nn(C(C)C)c(=O)c3cc(OCCCS(=O)(=O)N4CCOCC4)ccc23)n[nH]1 [Example A-4, 2-Isopropyl-4-(5-methyl-1H-pyrazol-3-ylamino)-7-[3-(morpholine-4-sulfonyl)-propoxy]-2H-phthalazin-1-one] | 791 nM
7 | Cc1cc(Nc2nn(C(C)C)c(=O)c3cc(OCCCS(=O)(=O)N(C)C)ccc23)n[nH]1 [Example A-3, 3-[3-Isopropyl-1-(5-methyl-1H-pyrazol-3-ylamino)-4-oxo-3,4-dihydro-phthalazin-6-yloxy]-propane-1-sulfonic acid dimethylamide] | 50 to 500 nM
8 | COCCN(C)c1ccc2c(Nc3cc(C)[nH]n3)nn(C(C)C)c(=O)c2c1 [Example B-2, 2-Isopropyl-7-[(2-methoxy-ethyl)-methyl-amino]-4-(5-methyl-1H-pyrazol-3-ylamino)-2H-phthalazin-1-one] | 50 to 500 nM
9 | Cc1cc(Nc2nn(C(C)C)c(=O)c3cc(OCCS(C)(=O)=O)ccc23)n[nH]1 [Example A-7, 2-Isopropyl-7-(2-methanesulfonyl-ethoxy)-4-(5-methyl-1H-pyrazol-3-ylamino)-2H-phthalazin-1-one] | 50 to 500 nM
10 | CSCCOc1ccc2c(Nc3cc(C)[nH]n3)nn(C(C)C)c(=O)c2c1 [Example A-1, 2-Isopropyl-4-(5-methyl-1H-pyrazol-3-ylamino)-7-(2-methylsulfanyl-ethoxy)-2H-phthalazin-1-one] | 216 nM
11 | Cc1cc(Nc2nn(C(C)C)c(=O)c3cc(N(C)CCN(C)C)ccc23)n[nH]1 [Example B-3, 7-[(2-Dimethylamino-ethyl)-methyl-amino]-2-isopropyl-4-(5-methyl-1H-pyrazol-3-ylamino)-2H-phthalazin-1-one] | 50 to 500 nM
12 | COCCOc1ccc2c(Nc3cc(C)[nH]n3)nn(C(C)C)c(=O)c2c1 [Example A-2, 2-Isopropyl-7-(2-methoxy-ethoxy)-4-(5-methyl-1H-pyrazol-3-ylamino)-2H-phthalazin-1-one] | 50 to 500 nM

More lines, now with the values ahead:

Row | IC50 | Structure (SMILES)
13 | 500 to 2500 nM | Cc1cc(Nc2nn(C(C)C)c(=O)c3cc(S(=O)(=O)CCS(C)(=O)=O)ccc23)n[nH]1 [Example C-2, 2-Isopropyl-7-(2-methanesulfonyl-ethanesulfonyl)-4-(5-methyl-1H-pyrazol-3-ylamino)-2H-phthalazin-1-one]
14 | 500 to 2500 nM | COCC(=O)N(C)c1ccc2c(Nc3cc(C)[nH]n3)nn(Cc3cc(F)cc(F)c3)c(=O)c2c1 [Example G-2, N-[3-(3,5-Difluoro-benzyl)-1-(5-methyl-1H-pyrazol-3-ylamino)-4-oxo-3,4-dihydro-phthalazin-6-yl]-2-methoxy-N-methyl-acetamide]
15 | 296 nM | CSCCSc1ccc2c(Nc3cc(C)[nH]n3)nn(C(C)C)c(=O)c2c1 [Example C-1, 2-Isopropyl-4-(5-methyl-1H-pyrazol-3-ylamino)-7-(2-methylsulfanyl-ethylsulfanyl)-2H-phthalazin-1-one]
16 | 500 to 2500 nM | Cc1cc(Nc2nn(C(C)C)c(=O)c3cc(CS(C)(=O)=O)ccc23)n[nH]1 [Example F-2, 2-Isopropyl-7-methanesulfonylmethyl-4-(5-methyl-1H-pyrazol-3-ylamino)-2H-phthalazin-1-one]
17 | 500 to 2500 nM | Cc1cc(Nc2nn(C(C)C)c(=O)c3cc(COCCN4CCOCC4)ccc23)[nH]n1 [Example E-3, 2-Isopropyl-4-(5-methyl-2H-pyrazol-3-ylamino)-7-(2-morpholin-4-yl-ethoxymethyl)-2H-phthalazin-1-one]
18 | 50 to 500 nM | Cc1cc(Nc2nn(C(C)C)c(=O)c3cc(COCC4CC4)ccc23)n[nH]1 [Example E-1, 7-Cyclopropylmethoxymethyl-2-isopropyl-4-(5-methyl-1H-pyrazol-3-ylamino)-2H-phthalazin-1-one]
19 | 50 to 500 nM | CSCc1ccc2c(Nc3cc(C)[nH]n3)nn(C(C)C)c(=O)c2c1 [Example F-1, 2-Isopropyl-4-(5-methyl-1H-pyrazol-3-ylamino)-7-methylsulfanylmethyl-2H-phthalazin-1-one]
20 | 50 to 500 nM | Cc1cc(Nc2nn(C(C)C)c(=O)c3cc(COCc4cccnc4)ccc23)n[nH]1 [Example E-2, 2-Isopropyl-4-(5-methyl-1H-pyrazol-3-ylamino)-7-(pyridin-3-ylmethoxymethyl)-2H-phthalazin-1-one]
21 | 50 to 500 nM | COCC(=O)N(C)c1ccc2c(Nc3cc(C)[nH]n3)nn(C(C)C)c(=O)c2c1 [Example G-1, N-[3-Isopropyl-1-(5-methyl-1H-pyrazol-3-ylamino)-4-oxo-3,4-dihydro-phthalazin-6-yl]-2-methoxy-N-methyl-acetamide]
